Source: ChEMBL document CHEMBL5241120, “Insights into the medicinal chemistry of heterocycles integrated with a pyrazolo[1,5-a]pyrimidine scaffold” (RSC Med Chem, 2022)
Values after ≈ are worked out from the molar mass of the structure shown. Blank lines part the entries; values can stand above or below the molecule they belong to.

Legend:
HEK293 = test: Cytotoxicity against HEK293 cells; type: functional, Homo sapiens
Bacillus subtilis [1] = test: Antibacterial activity against Bacillus subtilis assessed as zone of inhibition at 5 mg/ml; type: functional; conditions: read-out: IZ
HepG2 = test: Cytotoxicity against human HepG2 cells by MTT assay; type: functional, cell-based
MCF7 = test: Cytotoxicity against human MCF7 cells by MTT assay; type: functional, cell-based
HCT-116 [2] = test: Cytotoxicity against human HCT-116 cells by MTT assay; type: functional, cell-based
Candida albicans = test: Antifungal activity against Candida albicans; type: functional
[3] = molecular target: T1, liver carboxylesterase (CES) (Sus scrofa, UniProt Q29550); test: Inhibition of pig liver CES at 20 uM relative to control; type: tissue-based
T1 sequence (Q29550 whole entry): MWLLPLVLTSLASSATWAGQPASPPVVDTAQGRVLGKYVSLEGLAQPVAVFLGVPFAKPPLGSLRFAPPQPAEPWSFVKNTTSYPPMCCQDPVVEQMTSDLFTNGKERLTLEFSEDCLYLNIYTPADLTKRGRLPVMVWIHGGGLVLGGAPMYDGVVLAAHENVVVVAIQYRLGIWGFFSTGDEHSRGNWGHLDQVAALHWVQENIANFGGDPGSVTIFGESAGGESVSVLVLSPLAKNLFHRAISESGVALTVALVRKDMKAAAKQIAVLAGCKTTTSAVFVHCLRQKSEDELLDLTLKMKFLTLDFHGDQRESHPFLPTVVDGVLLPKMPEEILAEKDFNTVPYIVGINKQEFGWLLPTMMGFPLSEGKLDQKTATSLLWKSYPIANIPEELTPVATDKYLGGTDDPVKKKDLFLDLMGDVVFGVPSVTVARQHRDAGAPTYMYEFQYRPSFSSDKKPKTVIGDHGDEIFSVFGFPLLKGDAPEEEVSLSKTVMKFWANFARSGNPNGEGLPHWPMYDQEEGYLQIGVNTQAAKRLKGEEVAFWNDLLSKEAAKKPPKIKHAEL

[4] = Antioxidant activity assessed as ABTS radical scavenging activity; type: functional
Rattus norvegicus [5] = test: Analgesic activity in Sprague-Dawley rat at 15 mg/kg after 2 hrs by hot plate test; type: functional
HCT-116 [6] = test: Cytotoxicity against human HCT-116 cells; type: functional
Androgen receptor = molecular target: T2, Androgen receptor (Homo sapiens, UniProt P10275); test: Antagonist activity at androgen receptor (unknown origin)
T2 sequence (P10275 whole entry): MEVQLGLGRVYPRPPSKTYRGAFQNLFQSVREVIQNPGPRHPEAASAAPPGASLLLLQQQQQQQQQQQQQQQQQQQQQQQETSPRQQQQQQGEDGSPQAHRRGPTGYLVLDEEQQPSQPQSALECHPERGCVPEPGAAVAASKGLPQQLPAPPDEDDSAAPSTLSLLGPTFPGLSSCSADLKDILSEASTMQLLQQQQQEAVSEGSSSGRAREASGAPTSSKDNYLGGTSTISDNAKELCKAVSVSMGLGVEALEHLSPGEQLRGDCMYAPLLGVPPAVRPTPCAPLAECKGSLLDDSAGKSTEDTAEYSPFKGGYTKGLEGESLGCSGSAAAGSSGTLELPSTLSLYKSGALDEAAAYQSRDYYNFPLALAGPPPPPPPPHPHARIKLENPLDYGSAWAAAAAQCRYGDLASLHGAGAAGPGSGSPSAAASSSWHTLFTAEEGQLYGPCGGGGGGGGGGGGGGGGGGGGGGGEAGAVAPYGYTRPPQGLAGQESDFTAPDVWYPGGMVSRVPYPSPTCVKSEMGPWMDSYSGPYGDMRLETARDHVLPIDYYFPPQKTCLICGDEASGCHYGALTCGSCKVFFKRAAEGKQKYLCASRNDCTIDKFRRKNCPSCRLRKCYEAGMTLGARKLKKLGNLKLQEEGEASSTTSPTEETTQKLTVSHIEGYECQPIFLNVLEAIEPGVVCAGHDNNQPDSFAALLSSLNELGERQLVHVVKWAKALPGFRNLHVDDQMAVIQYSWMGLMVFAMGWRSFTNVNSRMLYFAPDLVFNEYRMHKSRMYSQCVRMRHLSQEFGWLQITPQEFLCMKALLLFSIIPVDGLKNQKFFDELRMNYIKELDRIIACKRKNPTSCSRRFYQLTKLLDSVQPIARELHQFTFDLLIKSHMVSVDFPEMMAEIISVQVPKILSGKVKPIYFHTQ

[7] = Inhibition of Hepatitis C virus NS3 protease; type: functional, Hepacivirus hominis
[8] = molecular target: T3, Prostaglandin G/H synthase 1 (Ovis aries, UniProt P05979); test: Inhibition of ovine COX-1
T3 sequence (P05979 whole entry): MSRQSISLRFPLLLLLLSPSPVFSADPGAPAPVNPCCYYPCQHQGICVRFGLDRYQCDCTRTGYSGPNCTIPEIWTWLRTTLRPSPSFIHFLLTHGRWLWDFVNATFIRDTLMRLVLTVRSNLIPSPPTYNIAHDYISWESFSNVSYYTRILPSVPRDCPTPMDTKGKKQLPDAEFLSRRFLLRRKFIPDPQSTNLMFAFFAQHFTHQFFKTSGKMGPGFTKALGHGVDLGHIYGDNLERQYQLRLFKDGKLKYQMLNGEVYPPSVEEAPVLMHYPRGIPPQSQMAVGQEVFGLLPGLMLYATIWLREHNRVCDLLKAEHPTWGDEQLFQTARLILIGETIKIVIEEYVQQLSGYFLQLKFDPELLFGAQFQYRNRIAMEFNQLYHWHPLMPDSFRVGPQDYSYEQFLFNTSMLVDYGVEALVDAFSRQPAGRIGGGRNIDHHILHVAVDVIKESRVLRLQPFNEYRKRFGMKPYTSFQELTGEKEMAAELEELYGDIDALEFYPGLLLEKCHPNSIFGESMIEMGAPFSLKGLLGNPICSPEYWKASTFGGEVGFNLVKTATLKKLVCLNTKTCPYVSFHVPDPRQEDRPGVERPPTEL

[9] = Inhibition of soybean 15-LOX; design: species or system Glycine max
Rattus norvegicus [10] = test: Antiinflammatory activity in rat assessed as inhibition of carrageenan induced paw edema; type: functional
Rattus norvegicus [11] = test: Antiinflammatory activity in rat assessed as inhibition of carrageenan induced paw edema at 50 mg/kg; type: functional; design: scale not given: the % may be the effect or the level left
RAW264.7 [12] = test: Antiinflammatory activity in mouse RAW264.7 cells assessed as decrease in IL-6 secretion; type: functional; design: scale not given: the % may be the effect or the level left
RAW264.7 [13] = test: Antiinflammatory activity in mouse RAW264.7 cells assessed as decrease in TNFalpha secretion; type: functional; design: scale not given: the % may be the effect or the level left
Staphylococcus aureus [14] = test: Antibacterial activity against Staphylococcus aureus assessed as zone of inhibition; type: functional
Aspergillus niger [15] = test: Antifungal activity against Aspergillus niger assessed as zone of inhibition; type: functional
Salmonella typhimurium = test: Antibacterial activity against Salmonella typhimurium assessed as zone of inhibition; type: functional, Salmonella enterica subsp. enterica serovar Typhimurium
Escherichia coli [16] = test: Antibacterial activity against Escherichia coli assessed as zone of inhibition; type: functional
Bacillus subtilis [17] = test: Antibacterial activity against Bacillus subtilis assessed as zone of inhibition; type: functional
Pseudomonas aeruginosa [18] = test: Antibacterial activity against Pseudomonas aeruginosa assessed as zone of inhibition; type: functional
Bacillus subtilis [19] = test: Antibacterial activity against Bacillus subtilis; type: functional
Staphylococcus aureus [20] = test: Antibacterial activity against Staphylococcus aureus; type: functional
Escherichia coli [21] = test: Antibacterial activity against Escherichia coli; type: functional
Pseudomonas aeruginosa [22] = test: Antibacterial activity against Pseudomonas aeruginosa; type: functional
Aspergillus niger [23] = test: Antifungal activity against Aspergillus niger; type: functional

Compound: Clc1ccc(-c2cc3nccc(-c4ccc(Cl)cc4)n3n2)cc1
Activity (HEK293): 44.2%

Compound: Nc1nc2c(/N=N/c3ccc(C(F)(F)F)cc3)c(N)nn2c(N)c1/N=N/c1ccc(C(F)(F)F)cc1
zone of inhibition at 5000 µg/mL (Bacillus subtilis [1]): 8 mm | IC50 (HepG2): 0.6 µg/mL (≈ 1.18 µM) | IC50 (MCF7): 0.3 µg/mL (≈ 0.59 µM) | IC50 (HCT-116 [2]): 0.4 µg/mL (≈ 0.787 µM)

Compound: Cc1ccc(N/N=C2\C(=O)n3nc(-c4ccccc4)cc3N=C2C(F)(F)F)cc1
inhibition at 20 µM [3]: 2.91% | Activity [4]: 0.19 µM | Activity (Rattus norvegicus [5]): 47.4%

Compound: COc1ccc(-c2ccnc3cc(-c4ccccc4)nn23)cc1
Activity (HEK293): 48%

Compound: COc1ccc(-c2ccnc3cc(-c4ccc(Cl)cc4)nn23)cc1
Activity (HCT-116 [6]): 37%

Compound: COc1ccc(-c2cc3nccc(-c4ccccc4)n3n2)cc1
Activity (HCT-116 [6]): 26%

Compound: Cc1c(C)c2c(c(C)c1O)CCC(C)(C(=O)O)O2 (stereo not drawn)
Activity [4]: 1 µM

Compound: COc1ccnc(Nc2nn3c(SC)c(C#N)c(O)nc3c2C#N)c1
IC50 [8]: 12.6 µM | IC50 [9]: 18.4 µM | ED50 (Rattus norvegicus [10]): 35 mg/kg | Activity (Rattus norvegicus [11]): 46% | Activity (RAW264.7 [12]): 80% | Activity (RAW264.7 [13]): 89%

Compound: Nc1nn2c(-c3ccc(S(=O)(=O)c4ccccc4)cc3)ccnc2c1/N=N/c1cccc(Cl)c1
inhibition zone (IZ) (Staphylococcus aureus [14]): 23.4 mm | inhibition zone (IZ) (Aspergillus niger [15]): 25.1 mm | inhibition zone (IZ) (Salmonella typhimurium): 26.3 mm

Compound: Nc1nn2c(-c3ccc(S(=O)(=O)c4ccccc4)cc3)ccnc2c1/N=N/c1ccccc1[N+](=O)[O-]
inhibition zone (IZ) (Escherichia coli [16]): 25.5 mm | inhibition zone (IZ) (Aspergillus niger [15]): 26.3 mm | inhibition zone (IZ) (Salmonella typhimurium): 26.6 mm

Compound: O=C(O)c1nn2c(c1Cl)NC(c1ccccc1)CC2C(F)(F)F (stereo not drawn)
IC50 (Androgen receptor): 487 µM

More lines, main results first:

MIC (Candida albicans): 15.6 µg/mL (≈ 37.4 µM)
Compound: COc1ccc(Nc2nn3c(N)c(C#N)c(-c4ccc(F)cc4)nc3c2C(N)=O)cc1

IC50 (Androgen receptor): 23.4 µM
Compound: COc1ccc(C2CC(C(F)(F)F)n3nc(-c4ccc(C(=O)O)cc4)cc3N2)cc1OC (stereo not drawn)

IC50 [7]: 7.33 µg/mL (≈ 16.1 µM)
Compound: N#C/C(=C/c1ccc(Cl)cc1)c1nn2c(-c3cccs3)cc(C(F)(F)F)nc2c1C#N

MIC (Candida albicans): 15.6 µg/mL (≈ 38.5 µM)
Compound: NC(=O)c1c(Nc2ccccc2)nn2c(-c3ccccc3)cc(-c3ccccc3)nc12

MIC (Bacillus subtilis [19]): 3.9 µg/mL (≈ 11.8 µM) | MIC (Staphylococcus aureus [20]): 7.81 µg/mL (≈ 23.7 µM) | MIC (Escherichia coli [21]): 15.6 µg/mL (≈ 47.4 µM) | MIC (Pseudomonas aeruginosa [22]): 7.81 µg/mL (≈ 23.7 µM) | MIC (Aspergillus niger [23]): 15.6 µg/mL (≈ 47.4 µM)
Compound: NC(=O)c1c(Nc2ccccc2)nn2c(-c3ccccc3)ccnc12
inhibition zone (IZ) (Staphylococcus aureus [14]): 10 mm | inhibition zone (IZ) (Escherichia coli [16]): 7 mm | inhibition zone (IZ) (Bacillus subtilis [17]): 12 mm | inhibition zone (IZ) (Pseudomonas aeruginosa [18]): 9 mm
